Laboratory results: patent publication US20160039880A1 (priority 2012, published 2016)
Converted amounts (≈) assume the structure as drawn. Like-named read-outs stand apart in the source and are kept apart here.

Tests used:
[1] = Water Solubility Assay (measured in pH 7.8 buffer); format: physicochemical;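 also: precipitation onset detected as rise in absorbance at 650 nm across increasing concentrations, after shaking for 18 h, blank wells receiving DMSO only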
[2] = target: Human recombinant cyclophilin A (Cyp A) (Homo sapiens, UniProt P62937); test: Protease-free PPIase assay;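 also: cis to trans isomerization of SUC-AAPF-pNA by 2 nM enzyme, read as absorbance at 330 nm over 300 s at 10 °C, catalytic rate corrected for uncatalyzed background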
Sequence of Human recombinant cyclophilin A (Cyp A) (P62937 whole entry): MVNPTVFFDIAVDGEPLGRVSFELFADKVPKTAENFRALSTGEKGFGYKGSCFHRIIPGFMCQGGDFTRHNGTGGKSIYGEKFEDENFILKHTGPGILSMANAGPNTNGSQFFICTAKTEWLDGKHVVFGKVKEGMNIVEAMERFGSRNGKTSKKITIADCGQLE

[3] = 25 °C, pH 7.8, aqueous buffer, kinetic from dmso stock

solubility at 18 h [1, 3] | Ki [2] | Compound | also measured
> 100 µM | 4.7 nM | CC[C@H]1NC(=O)[C@@H]([C@H](O)[C@H](C)CCCCCN(CC)CC)N(C)C(=O)[C@@H](C(C)C)N(C)C(=O)[C@@H](CC(C)C)N(C)C(=O)[C@@H](CC(C)C)N(C)C(=O)[C@H](C)NC(=O)[C@@H](C)NC(=O)[C@@H](CC(C)C)N(C)C(=O)[C@@H](C(C)C)NC(=O)[C@H](CC(C)C)N(C)C(=O)[C@@H](C)N(C)C1=O [Compound AH, [(6R,7R,8S)-7-Hydroxy-6-methyl-8-(methylamino)-1-N-diethylamino-nonanoic acid]^1[(R)-methyl-Sar]^3 cyclosporin A] | 
> 100 µM | 3.3 nM | CC[C@H]1NC(=O)[C@@H]([C@H](O)[C@H](C)CCCCCNCCOC)N(C)C(=O)[C@@H](C(C)C)N(C)C(=O)[C@@H](CC(C)C)N(C)C(=O)[C@@H](CC(C)C)N(C)C(=O)[C@H](C)NC(=O)[C@@H](C)NC(=O)[C@@H](CC(C)C)N(C)C(=O)[C@@H](C(C)C)NC(=O)[C@H](CC(C)C)N(C)C(=O)[C@@H](C)N(C)C1=O [Compound AI, [(6R,7R,8S)-7-Hydroxy-6-methyl-8-(methylamino)-1-N-(2-methoxy)ethylamino-nonanoic acid]^1[(R)-methyl-Sar]^3 cyclosporin A] | 
 | 4.9 nM | CC[C@H]1NC(=O)[C@@H]([C@H](O)[C@H](C)CCN(C)Cc2ccccn2)N(C)C(=O)[C@@H](C(C)C)N(C)C(=O)[C@@H](CC(C)C)N(C)C(=O)[C@@H](CC(C)C)N(C)C(=O)[C@H](C)NC(=O)[C@@H](C)NC(=O)[C@@H](CC(C)C)N(C)C(=O)[C@@H](C(C)C)NC(=O)[C@H](CC(C)C)N(C)C(=O)[C@@H](C)N(C)C1=O [Compound DA, [(3R,4R,5S)-4-Hydroxy-3-methyl-5-(methylamino)-1-({pyridin-2-ylmethyl}-methylamino)-hexanoic acid]^1[(R)-methyl-Sar]^3 cyclosporin A] | solubility at 18 h ([1]; 35 mM HEPES buffer pH 7.8, 25 °C, aqueous buffer, kinetic from dmso stock, pH 7.8 buffer, read-out: Water Solubility Assay): 75 to 100 µM (≈ 98.3 to 131 µg/mL)
 | 23 nM | CC[C@H]1NC(=O)[C@@H]([C@H](O)[C@H](C)CCN(C)Cc2cnn(C)c2)N(C)C(=O)[C@@H](C(C)C)N(C)C(=O)[C@@H](CC(C)C)N(C)C(=O)[C@@H](CC(C)C)N(C)C(=O)[C@H](C)NC(=O)[C@@H](C)NC(=O)[C@@H](CC(C)C)N(C)C(=O)[C@@H](C(C)C)NC(=O)[C@H](CC(C)C)N(C)C(=O)[C@@H](C)N(C)C1=O [Compound DM, [(3R,4R,5S)-4-Hydroxy-3-methyl-5-(methylamino)-1-({1-methyl-1H-pyrazol-4-ylmethyl}-methylamino)-hexanoic acid]^1[(R)-methyl-Sar]^3 cyclosporin A] | 
 | 22 nM | CC[C@H]1NC(=O)[C@@H]([C@H](O)[C@H](C)CCN2CCCCC2)N(C)C(=O)[C@@H](C(C)C)N(C)C(=O)[C@@H](CC(C)C)N(C)C(=O)[C@@H](CC(C)C)N(C)C(=O)[C@H](C)NC(=O)[C@@H](C)NC(=O)C(CC(C)C)N(C)C(=O)[C@@H](C(C)C)NC(=O)[C@H](CC(C)C)N(C)C(=O)[C@@H](C)N(C)C1=O (stereo partly drawn) [Compound EA, [(3R,4R,5S)-4-Hydroxy-3-methyl-5-(methylamino)-1-(piperidin-1-yl)-hexanoic acid]^1[(R)-methyl-Sar]^3 cyclosporin A] | 
 | 40 nM | CC[C@H]1NC(=O)[C@@H]([C@H](O)[C@H](C)CCN2CCCC2)N(C)C(=O)[C@@H](C(C)C)N(C)C(=O)[C@@H](CC(C)C)N(C)C(=O)[C@@H](CC(C)C)N(C)C(=O)[C@H](C)NC(=O)[C@@H](C)NC(=O)C(CC(C)C)N(C)C(=O)[C@@H](C(C)C)NC(=O)[C@H](CC(C)C)N(C)C(=O)[C@@H](C)N(C)C1=O (stereo partly drawn) [Compound EF, [(3R,4R,5S)-4-Hydroxy-3-methyl-5-(methylamino)-1-(pyrrolidin-1-yl)-hexanoic acid]^1[(R)-methyl-Sar]^3 cyclosporin A] | 

More lines, now with the values behind:

Compound | solubility at 18 h [1, 3] | Ki [2] | also measured
CC[C@H]1NC(=O)[C@@H]([C@H](O)[C@H](C)CCN(C)CCOC)N(C)C(=O)[C@@H](C(C)C)N(C)C(=O)[C@@H](CC(C)C)N(C)C(=O)[C@@H](CC(C)C)N(C)C(=O)[C@H](C)NC(=O)[C@@H](C)NC(=O)[C@@H](CC(C)C)N(C)C(=O)[C@@H](C(C)C)NC(=O)[C@H](CC(C)C)N(C)C(=O)[C@@H](C)N(C)C1=O [Compound AG] |  |  | solubility at 18 h ([1]; 35 mM HEPES pH 7.8, 1% DMSO, 25 °C, 18 h, read-out: Water Solubility Assay, concentration at which the compound remains in solution): >100 µM; Ki ([2]; read-out: Protease-free PPIase Assay Ki, cyclophilin A, 10 °C): 18 nM
CS[C@@H]1C(=O)N(C)[C@@H](CC(C)C)C(=O)N[C@H](C(C)C)C(=O)N(C)[C@H](CC(C)C)C(=O)N[C@H](C)C(=O)N[C@@H](C)C(=O)N(C)[C@H](CC(C)C)C(=O)N(C)[C@H](CC(C)C)C(=O)N(C)[C@H](C(C)C)C(=O)N(C)[C@H]([C@H](O)[C@H](C)CCN2CCOCC2)C(=O)N[C@H](C(C)C)C(=O)N1C [Compound AM, [(3R,4R,5S)-4-Hydroxy-3-methyl-5-(methylamino)-1-morpholino-hexanoic acid]^1[(S)-thio-methyl-Sar]^3 cyclosporin D] | 25 to 50 µM (≈ 33 to 66.1 µg/mL) | 1.9 nM | 
CC[C@H]1NC(=O)[C@@H]([C@H](O)[C@H](C)CCN2CCOCC2)N(C)C(=O)[C@@H](C(C)C)N(C)C(=O)[C@@H](CC(C)C)N(C)C(=O)[C@@H](CC(C)C)N(C)C(=O)[C@H](C)NC(=O)[C@@H](C)NC(=O)[C@@H](CC(C)C)N(C)C(=O)[C@@H](C(C)C)NC(=O)[C@H](CC(C)C)N(C)C(=O)[C@@H](OC)N(C)C1=O [Compound B, [(3R,4R,5S)-4-Hydroxy-3-methyl-5-(methylamino)-1-N-morpholino-hexanoic acid]^1[(S)-methoxy-Sar]^3 cyclosporin A] | > 100 µM | 8 nM | 
CC[C@H]1NC(=O)[C@@H]([C@H](O)[C@H](C)CCCCCN2CCOCC2)N(C)C(=O)[C@@H](C(C)C)N(C)C(=O)[C@@H](CC(C)C)N(C)C(=O)[C@@H](CC(C)C)N(C)C(=O)[C@H](C)NC(=O)[C@@H](C)NC(=O)[C@@H](CC(C)C)N(C)C(=O)[C@@H](C(C)C)NC(=O)[C@H](CC(C)C)N(C)C(=O)CN(C)C1=O [Compound C, [(6R,7R,8S)-7-Hydroxy-6-methyl-8-(methylamino)-1-N-morpholinyl-nonanoic acid]^1 cyclosporin A] |  | 14 nM | solubility at 18 h ([1]; 35 mM HEPES buffer pH 7.8, aqueous buffer, kinetic from dmso stock, 35 mM HEPES pH 7.8, 1% DMSO, 25 °C, 18 h, read-out: Water Solubility Assay, concentration at which the compound remains in solution): > 100 µM
CC[C@H]1NC(=O)[C@@H]([C@H](O)[C@H](C)CCN2CCOCC2)N(C)C(=O)[C@@H](C(C)C)N(C)C(=O)[C@@H](CC(C)C)N(C)C(=O)[C@@H](CC(C)C)N(C)C(=O)[C@H](C)NC(=O)[C@@H](C)NC(=O)[C@@H](CC(C)C)N(C)C(=O)[C@@H](C(C)C)NC(=O)[C@H](CC(C)C)N(C)C(=O)[C@@H](COC)N(C)C1=O [Compound D, [(3R,4R,5S)-4-Hydroxy-3-methyl-5-(methylamino)-1-N-morpholino-hexanoic acid]^1[(R)-methoxymethylene-Sar]^3 cyclosporin A] | 75 to 100 µM (≈ 97.9 to 131 µg/mL) | 10 nM | 
CC[C@H]1NC(=O)[C@@H]([C@H](O)[C@H](C)CCN(C)Cc2ccc(F)cn2)N(C)C(=O)[C@@H](C(C)C)N(C)C(=O)[C@@H](CC(C)C)N(C)C(=O)[C@@H](CC(C)C)N(C)C(=O)[C@H](C)NC(=O)[C@@H](C)NC(=O)[C@@H](CC(C)C)N(C)C(=O)[C@@H](C(C)C)NC(=O)[C@H](CC(C)C)N(C)C(=O)[C@@H](C)N(C)C1=O [Compound DP, [(3R,4R,5S)-4-Hydroxy-3-methyl-5-(methylamino)-1-({5-fluoro-pyridin-2-ylmethyl}-methylamino)-hexanoic acid]^1[(R)-methyl-Sar]^3 cyclosporin A] |  | 16.2 nM | 
CC[C@H]1NC(=O)[C@@H]([C@H](O)[C@H](C)CCN(C)Cc2ccc(Cl)cn2)N(C)C(=O)[C@@H](C(C)C)N(C)C(=O)[C@@H](CC(C)C)N(C)C(=O)[C@@H](CC(C)C)N(C)C(=O)[C@H](C)NC(=O)[C@@H](C)NC(=O)[C@@H](CC(C)C)N(C)C(=O)[C@@H](C(C)C)NC(=O)[C@H](CC(C)C)N(C)C(=O)[C@@H](C)N(C)C1=O [Compound DQ, [(3R,4R,5S)-4-Hydroxy-3-methyl-5-(methylamino)-1-({5-chloro-pyridin-2-ylmethyl}-methylamino)-hexanoic acid]^1[(R)-methyl-Sar]^3 cyclosporin A] |  | 11 nM | 
CC[C@H]1NC(=O)[C@@H]([C@H](O)[C@H](C)CCN(C)Cc2ncccc2C(F)(F)F)N(C)C(=O)[C@@H](C(C)C)N(C)C(=O)[C@@H](CC(C)C)N(C)C(=O)[C@@H](CC(C)C)N(C)C(=O)[C@H](C)NC(=O)[C@@H](C)NC(=O)[C@@H](CC(C)C)N(C)C(=O)[C@@H](C(C)C)NC(=O)[C@H](CC(C)C)N(C)C(=O)[C@@H](C)N(C)C1=O [Compound DR, [(3R,4R,5S)-4-Hydroxy-3-methyl-5-(methylamino)-1-({3-trifluoromethyl-pyridin-2-ylmethyl}-methylamino)-hexanoic acid]^1[(R)-methyl-Sar]^3 cyclosporin A] |  | 8.4 nM | 
CC[C@H]1NC(=O)[C@@H]([C@H](O)[C@H](C)CCCCN(C)C)N(C)C(=O)[C@@H](C(C)C)N(C)C(=O)[C@@H](CC(C)C)N(C)C(=O)[C@@H](CC(C)C)N(C)C(=O)[C@H](C)NC(=O)[C@@H](C)NC(=O)[C@@H](CC(C)C)N(C)C(=O)[C@@H](C(C)C)NC(=O)[C@H](CC(C)C)N(C)C(=O)[C@@H](C)N(C)C1=O [Compound KF, [(5R,6R,7S)-1-(dimethylamino)-6-hydroxy-5-methyl-7-(methylamino)-octanoic acid]^1[(R)-methyl-Sar]^3 cyclosporin A] |  | 7.8 nM | 
CC[C@H]1NC(=O)[C@@H]([C@H](O)[C@H](C)CCCCN2CCOCC2)N(C)C(=O)[C@@H](C(C)C)N(C)C(=O)[C@@H](CC(C)C)N(C)C(=O)[C@@H](CC(C)C)N(C)C(=O)[C@H](C)NC(=O)[C@@H](C)NC(=O)[C@@H](CC(C)C)N(C)C(=O)[C@@H](C(C)C)NC(=O)[C@H](CC(C)C)N(C)C(=O)[C@@H](C)N(C)C1=O [Compound KG, [(5R,6R,7S)-6-hydroxy-5-methyl-7-(methylamino)-1-(N-morpholino)-octanoic acid]^1[(R)-methyl-Sar]^3 cyclosporin A] |  | 3.8 nM | 
